Where two headings read alike, the source gives them in different places.
How the values were obtained:
[1] = Phase 1 SAD/MAD study: plasma pharmacokinetics of Compound 1a (LC-MS-MS, noncompartmental analysis); assay type: in vivo, human; settings: for Cmax / Tmax / half-life / AUC(0-t) / Cmax at 7 days / Tmax at 7 days / AUC(0-inf): human, plasma; for Cmax at 7 days: read-out: Day 7 Cmax; for Tmax at 7 days: read-out: Day 7 Tmax
Experimental: Pharmacokinetics: Human K2-ethylenediaminetetraacetic acid (K2-EDTA) plasma samples were analyzed for Compound 1a by a validated method over a range of 1.0 to 1000 ng/mL based on the analysis of 100 μL of sample. Human plasma containing Compound 1a and the internal standard, Compound 1a-D4, was extracted using liquid-liquid extraction and analyzed by a Sciex API 4000 LC-MS-MS equipped with an HPLC column. The peak area of the m/z 370.2→298.0 Compound 1a product ion was measured against the peak area of the m/z 374.3→302.4 Compound 1a-D4 internal standard product ion. Quantitation was performed using a weighted 1/x^2 linear least squares regression analysis generated from calibration standards prepared on the day of extraction.
Pharmacokinetic analysis: Pharmacokinetic calculations based on Compound 1a plasma concentrations were performed using noncompartmental analysis in Phoenix WinNonlin (Certara, Princeton, New Jersey). […] Accumulation ratio based on Cmax was calculated as (Cmax,day 7)/(Cmax, day 1).
Subject disposition: Six cohorts of 6 to 8 subjects each (N=up to 48) were administered single doses of 40, 120, 360, 1,000, 2,000, and 3,000 mg of Compound 1a in Part A under fasting conditions. Following a 2-week washout, subjects in the 1,000 mg cohort were administered a second 1,000 mg single dose following a high-fat breakfast. Six cohorts of 8 healthy subjects each were administered multiple doses of 75 mg […] (qd), 125 mg every 12 hours (q12 h), 500 mg q12 h, 500 mg qd, 750 mg qd, and 1,000 mg qd for 7 days in the MAD Part B (FIG. 1).

[2] = target: T1, glycolate oxidase (GO) (Homo sapiens, UniProt Q9UJM8); assay: Pharmacokinetic-pharmacodynamic (PK/PD) modeling of GO inhibition; settings: PK/PD modeling of Phase 1 data
T1 construct: healthy adult volunteers received single doses of Compound 1a; from tissue; host or cells: liver of healthy adult human volunteers (in vivo, Phase 1 study)
T1 sequence (Q9UJM8 1-370): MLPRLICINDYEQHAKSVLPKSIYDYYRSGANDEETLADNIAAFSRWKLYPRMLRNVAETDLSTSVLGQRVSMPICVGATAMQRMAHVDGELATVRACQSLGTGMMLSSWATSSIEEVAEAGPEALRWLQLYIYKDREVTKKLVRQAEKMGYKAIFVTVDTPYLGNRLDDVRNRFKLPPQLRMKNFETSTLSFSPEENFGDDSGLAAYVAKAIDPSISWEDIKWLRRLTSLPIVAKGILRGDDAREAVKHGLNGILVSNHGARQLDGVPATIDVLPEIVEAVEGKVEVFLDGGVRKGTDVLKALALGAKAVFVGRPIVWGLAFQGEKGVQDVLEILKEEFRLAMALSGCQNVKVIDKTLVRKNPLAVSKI
Description: This study provides dosing and safety information for Compound 1a in patients with PH1 and recurrent stone formers with hyperoxaluria due to hepatic overproduction of oxalate. Pharmacokinetic data supports once daily administration of Compound 1a and rapid onset of action. […] Details of the study are presented in Example 2.

[3] = oral, 75 mg, MAD 75 mg qd for 7 days, average
[4] = oral, 125 mg, MAD 125 mg q12h for 7 days, average
[5] = oral, 500 mg, MAD 500 mg q12h for 7 days, average
[6] = oral, 500 mg, MAD 500 mg qd for 7 days, average
[7] = oral, 750 mg, MAD 750 mg qd for 7 days, average
[8] = oral, 1000 mg, MAD 1000 mg qd for 7 days, average
[9] = po, 40 mg, SAD 40 mg oral, fasted, average
[10] = po, 120 mg, SAD 120 mg oral, fasted, average
[11] = po, 360 mg, SAD 360 mg oral, fasted, average
[12] = po, 1000 mg, SAD 1,000 mg oral, fasted, average
[13] = po, 1000 mg, SAD 1,000 mg oral, fed, average
[14] = po, 2000 mg, SAD 2,000 mg oral, fasted, average
[15] = po, 3000 mg, SAD 3,000 mg oral, fasted, average

**Q.** Which results are given for O.O=C([O-])c1nn[nH]c1Oc1ccc(-c2ccc(C3CC(F)(F)C3)cc2)cc1.[Na+] [Compound 1a, sodium 5-((4′-(3,3-difluorocyclobutyl)-[1,1′-biphenyl]-4-yl)oxy)-1H-1,2,3-triazole-4-carboxylate monohydrate]?
**A.** Cmax ([1]; oral, 40 mg, single dose 40 mg, healthy volunteers, geometric mean): 2040 ng/mL; Tmax ([1]; oral, 40 mg, single dose 40 mg, healthy volunteers, geometric mean (geometric CV %), read-out: Tmax): 1.9 h; half-life ([1]; oral, 40 mg, single dose 40 mg, healthy volunteers, geometric mean (geometric CV %), read-out: t1/2 (converted)): 25 h; AUC(0-t) ([1]; oral, 40 mg, single dose 40 mg, healthy volunteers, geometric mean, read-out: AUClast): 13.9 µg·h/mL; AUC(0-t) ([1]; oral, 75 mg, MAD 75 mg qd for 7 days, average, read-out: Day 7 AUC0-24): 23.9 µg·h/mL; Cmax at 7 days [1, 3]: 3420 ng/mL; Tmax at 7 days [1, 3]: 2.45 h; Cmax ([1]; oral, 120 mg, single dose 120 mg, healthy volunteers, geometric mean): 5020 ng/mL; Tmax ([1]; oral, 120 mg, single dose 120 mg, healthy volunteers, geometric mean (geometric CV %), read-out: Tmax): 2.3 h; half-life ([1]; oral, 120 mg, single dose 120 mg, healthy volunteers, geometric mean (geometric CV %), read-out: t1/2 (converted)): 22 h; AUC(0-t) ([1]; oral, 120 mg, single dose 120 mg, healthy volunteers, geometric mean, read-out: AUClast): 41 µg·h/mL; AUC(0-t) ([1]; oral, 125 mg, MAD 125 mg q12h for 7 days, average, read-out: Day 7 AUC0-12): 45.6 µg·h/mL; Cmax at 7 days [1, 4]: 6450 ng/mL; Tmax at 7 days [1, 4]: 2.04 h; Cmax ([1]; oral, 360 mg, single dose 360 mg, healthy volunteers, geometric mean): 10500 ng/mL; Tmax ([1]; oral, 360 mg, single dose 360 mg, healthy volunteers, geometric mean (geometric CV %), read-out: Tmax): 2.3 h; half-life ([1]; oral, 360 mg, single dose 360 mg, healthy volunteers, geometric mean (geometric CV %), read-out: t1/2 (converted)): 26 h; AUC(0-t) ([1]; oral, 360 mg, single dose 360 mg, healthy volunteers, geometric mean, read-out: AUClast): 83.2 µg·h/mL; AUC(0-t) ([1]; oral, 500 mg, MAD 500 mg q12h for 7 days, average, read-out: Day 7 AUC0-12): 342 µg·h/mL; Cmax at 7 days [1, 5]: 43800 ng/mL; Tmax at 7 days [1, 5]: 1.44 h; AUC(0-t) ([1]; oral, 500 mg, MAD 500 mg qd for 7 days, average, read-out: Day 7 AUC0-24): 133 µg·h/mL; Cmax at 7 days [1, 6]: 17000 ng/mL; Tmax at 7 days [1, 6]: 2.35 h; AUC(0-t) ([1]; oral, 750 mg, MAD 750 mg qd for 7 days, average, read-out: Day 7 AUC0-24): 214 µg·h/mL; Cmax at 7 days [1, 7]: 24300 ng/mL; Tmax at 7 days [1, 7]: 2.62 h; AUC(0-t) ([1]; oral, 1000 mg, MAD 1000 mg qd for 7 days, average, read-out: Day 7 AUC0-24): 303 µg·h/mL; Cmax at 7 days [1, 8]: 29900 ng/mL; Tmax at 7 days [1, 8]: 2.18 h; Cmax ([1]; oral, 1000 mg, single dose 1000 mg, healthy volunteers, geometric mean): 17200 ng/mL; Tmax ([1]; oral, 1000 mg, single dose 1000 mg, healthy volunteers, geometric mean (geometric CV %), read-out: Tmax): 2.5 h; half-life ([1]; oral, 1000 mg, single dose 1000 mg, healthy volunteers, geometric mean (geometric CV %), read-out: t1/2 (converted)): 28 h; AUC(0-t) ([1]; oral, 1000 mg, single dose 1000 mg, healthy volunteers, geometric mean, read-out: AUClast): 184 µg·h/mL; Tmax ([1]; oral, 1000 mg, single dose of 1,000 mg, fasted, read-out: average Tmax): 3 h; half-life ([1]; oral, 1000 mg, single dose of 1,000 mg, fasted, read-out: t1/2 (converted)): ~26.8 h; Tmax ([1]; oral, 1000 mg, single dose of 1,000 mg, fed, read-out: average Tmax): 5.9 h; half-life ([1]; oral, 1000 mg, single dose of 1,000 mg, fed, read-out: t1/2 (converted)): ~25.2 h; Cmax ([1]; oral, 2000 mg, single dose 2000 mg, healthy volunteers, geometric mean): 25600 ng/mL; Tmax ([1]; oral, 2000 mg, single dose 2000 mg, healthy volunteers, geometric mean (geometric CV %), read-out: Tmax): 2.9 h; half-life ([1]; oral, 2000 mg, single dose 2000 mg, healthy volunteers, geometric mean (geometric CV %), read-out: t1/2 (converted)): 23 h; AUC(0-t) ([1]; oral, 2000 mg, single dose 2000 mg, healthy volunteers, geometric mean, read-out: AUClast): 312 µg·h/mL; Cmax ([1]; oral, 3000 mg, single dose 3000 mg, healthy volunteers, geometric mean): 22500 ng/mL; Tmax ([1]; oral, 3000 mg, single dose 3000 mg, healthy volunteers, geometric mean (geometric CV %), read-out: Tmax): 2.9 h; half-life ([1]; oral, 3000 mg, single dose 3000 mg, healthy volunteers, geometric mean (geometric CV %), read-out: t1/2 (converted)): 34 h; AUC(0-t) ([1]; oral, 3000 mg, single dose 3000 mg, healthy volunteers, geometric mean, read-out: AUClast): 225 µg·h/mL; Tmax ([1]; oral, single-dose administration of 40 mg to 3,000 mg, read-out: average plasma Tmax values across dose levels): 1.9 to 2.9 h; half-life ([1]; oral, single-dose administration of 40 mg to 3,000 mg, read-out: average t1/2 across dose levels): 21.9 to 33.7 h; AUC(0-inf) [1, 9]: 14 µg·h/mL; Cmax [1, 9]: 2040 ng/mL; AUC(0-t) ([1]; po, 40 mg, SAD 40 mg oral, fasted, average, read-out: AUC0-24): 12.1 µg·h/mL; Tmax ([1]; po, 40 mg, SAD 40 mg oral, fasted, average, read-out: Tmax): 1.89 h; half-life ([1]; po, 40 mg, SAD 40 mg oral, fasted, average, read-out: t1/2 (converted)): 24.6 h; AUC(0-inf) [1, 10]: 41.4 µg·h/mL; Cmax [1, 10]: 5020 ng/mL; half-life ([1]; po, 120 mg, SAD 120 mg oral, fasted, average, plasma (N = 5), read-out: t1/2 (converted)): 21.9 h; AUC(0-t) ([1]; po, 120 mg, SAD 120 mg oral, fasted, average, read-out: AUC0-24): 36.7 µg·h/mL; Tmax ([1]; po, 120 mg, SAD 120 mg oral, fasted, average, read-out: Tmax): 2.29 h; AUC(0-inf) [1, 11]: 83.3 µg·h/mL; Cmax [1, 11]: 10500 ng/mL; AUC(0-t) ([1]; po, 360 mg, SAD 360 mg oral, fasted, average, read-out: AUC0-24): 74.1 µg·h/mL; Tmax ([1]; po, 360 mg, SAD 360 mg oral, fasted, average, read-out: Tmax): 2.28 h; half-life ([1]; po, 360 mg, SAD 360 mg oral, fasted, average, read-out: t1/2 (converted)): 25.9 h; AUC(0-inf) [1, 12]: 214 µg·h/mL; Cmax [1, 12]: 19500 ng/mL; AUC(0-t) ([1]; po, 1000 mg, SAD 1,000 mg oral, fasted, average, read-out: AUC0-24): 174 µg·h/mL; Tmax ([1]; po, 1000 mg, SAD 1,000 mg oral, fasted, average, read-out: Tmax): 3 h; half-life ([1]; po, 1000 mg, SAD 1,000 mg oral, fasted, average, read-out: t1/2 (converted)): 26.8 h; AUC(0-inf) [1, 13]: 237 µg·h/mL; Cmax [1, 13]: 14700 ng/mL; AUC(0-t) ([1]; po, 1000 mg, SAD 1,000 mg oral, fed, average, read-out: AUC0-24): 180 µg·h/mL; Tmax ([1]; po, 1000 mg, SAD 1,000 mg oral, fed, average, read-out: Tmax): 5.86 h; half-life ([1]; po, 1000 mg, SAD 1,000 mg oral, fed, average, read-out: t1/2 (converted)): 25.2 h; AUC(0-inf) [1, 14]: 312 µg·h/mL; Cmax [1, 14]: 25600 ng/mL; AUC(0-t) ([1]; po, 2000 mg, SAD 2,000 mg oral, fasted, average, read-out: AUC0-24): 253 µg·h/mL; Tmax ([1]; po, 2000 mg, SAD 2,000 mg oral, fasted, average, read-out: Tmax): 2.94 h; half-life ([1]; po, 2000 mg, SAD 2,000 mg oral, fasted, average, read-out: t1/2 (converted)): 23.4 h; AUC(0-inf) [1, 15]: 226 µg·h/mL; Cmax [1, 15]: 22500 ng/mL; AUC(0-t) ([1]; po, 3000 mg, SAD 3,000 mg oral, fasted, average, read-out: AUC0-24): 184 µg·h/mL; Tmax ([1]; po, 3000 mg, SAD 3,000 mg oral, fasted, average, read-out: Tmax): 2.94 h; half-life ([1]; po, 3000 mg, SAD 3,000 mg oral, fasted, average, read-out: t1/2 (converted)): 33.7 h; Overall exposure, fed versus fasted (food effect) ([1]; single dose of 1,000 mg, same cohort, 2-week washout): slightly lower under fed than under fasted conditions; inhibition of GO [2]: up to 97%
